{
  "source": "patent US10500286B2",
  "about": "“CCK2R-drug conjugates” (priority 2015, dated 2019)",
  "key": {"[1]": {"test": "Body weight of mice bearing subcutaneous HEK-CCK2R tumors during treatment", "format": "in vivo", "settings": "2 μmol/kg, TIW×2 weeks", "procedure": "(▪) control; (▴) EC1873; (●) EC1868; (∘) EC1947.\n(§1) Female Balb/c nu/nu mice were fed ad libitum with 2918 irradiated Teklad Global 18% Rodent Diet for the duration of the experiment. HEK-CCK2R tumor cells were inoculated subcutaneously at the right flank of each mouse. Mice were dosed through the lateral tail vein under sterile conditions in a volume of 200 μL of phosphate-buffered saline (PBS)."}, "HEK-CCK2R tumor cells": {"test_system": "HEK-CCK2R tumor cells", "test": "Antitumor activity in HEK-CCK2R tumor model", "format": "in vivo, mice", "settings": "2 μmol/kg", "procedure": "as §1\nGrowth of each s.c. tumor was followed by measuring the tumor two times per week. Tumors were measured in two perpendicular directions using Vernier calipers, and their volumes were calculated as 0.5×L×W^2, where L=measurement of longest axis in mm and W=measurement of axis perpendicular to L in mm.\nTreatment with 2 μmol/kg of EC1947 (Sulfated CCK8-Tubulysin B SMDC), three times a week for two weeks produced maximal anti-tumor activity with 80% cures and 20% CR's. In comparison, EC1868 (CCK8-PEG3-Tubulysin B SMDC) and EC1873 (CCK8-PEG12-Tubulysin B SMDC) at the same dose and schedule produced 100% CR's and 80% CR's/20% PR's, respectively."}, "HEK-CCK2R cells [2]": {"test_system": "HEK-CCK2R cells", "format": "cell-based", "settings": "2 h pulse at 37 C, chase up to 72 h, [3H]thymidine incorporation relative to untreated controls", "procedure": "(§2) CCK2R-positive HEK-CCK2R cells were seeded in 12-well Falcon plates and allowed to form nearly confluent monolayers overnight in RPMI/HIFCS. Each well then received increasing concentrations of CCK2R targeted conjugates (n=4). Cells were pulsed for 2 h at 37° C., rinsed with medium, and then chased in fresh medium up to 72 h. Spent medium was aspirated and replaced with medium containing [^3H]thymidine. Following a 2 h incubation, cells were washed with PBS and then treated with 5% trichloroacetic acid. The trichloroacetic acid was aspirated and cells were solubilized in 0.25 N sodium hydroxide. Each solubilized sample were transferred to scintillation vials containing Ecolume scintillation cocktail and counted in a liquid scintillation counter. Final results were expressed as the percentage of [^3H]thymidine incorporation relative to untreated controls and IC50 values calculated using GraphPad Prism software."}, "HEK-CCK2R cells [3]": {"test_system": "HEK-CCK2R cells", "test": "In vitro study of conjugates versus competitor, [3H]thymidine incorporation", "format": "cell-based", "procedure": "as §2, with “(EC1812 or EC1868)+/−10 μM of CCK2R binding competitor (Re-EC1786 or Re-EC1825).” for “(n=4).”"}, "[4]": {"settings": "three times a week for two weeks"}},
  "note": "pIC50: −log10 of the molar value. Like-named read-outs stand apart in the source and are kept apart here.",
  "data": [
    {"smiles": "CCCC(=O)OCN(C(=O)[C@@H](NC(=O)[C@H]1CCCCN1C)C(C)CC)[C@H](C[C@@H](OC(C)=O)c1nc(C(=O)N[C@@H](Cc2ccc(O)cc2)C[C@H](C)C(=O)NNC(=O)OCCSSC[C@H](NC(=O)[C@H](CC(=O)O)NC(=O)[C@@H](N)CNC(C)=O)C(=O)NCCOCCOCCOCCC(=O)N[C@@H](CC(=O)O)C(=O)N[C@@H](Cc2ccc(O)cc2)C(=O)N[C@@H](CCSC)C(=O)NCC(=O)N[C@@H](Cc2c[nH]c3ccccc23)C(=O)N[C@@H](CCSC)C(=O)N[C@@H](CC(=O)O)C(=O)N[C@@H](Cc2ccccc2)C(N)=O)cs1)C(C)C", "note": "(some centres unmarked) [EC1868]", "values": [
      {"measurement": "weight loss", "setting": "[1]", "result": "do not induce weight loss"},
      {"measurement": "CR, number of animals, second figure of {PR, CR, cure}", "setting": "HEK-CCK2R tumor cells; TIW×2 weeks, n=5", "result": 5},
      {"measurement": "CR's", "setting": "HEK-CCK2R tumor cells; [4]", "result": 100, "unit": "%"},
      {"measurement": "pIC50", "setting": "HEK-CCK2R cells [2]", "result": 9.70},
      {"measurement": "cytotoxic activity on HEK-CCK2R, in words", "setting": "HEK-CCK2R cells [3]", "result": "potent, competeable cytotoxic activity"}
    ]},
    {"smiles": "CCCC(=O)OCN(C(=O)[C@@H](NC(=O)[C@H]1CCCCN1C)C(C)CC)[C@H](C[C@@H](OC(C)=O)c1nc(C(=O)N[C@@H](Cc2ccc(O)cc2)C[C@H](C)C(=O)NNC(=O)OCSSC[C@H](NC(=O)[C@H](CC(=O)O)NC(=O)[C@@H](N)CNC(C)=O)C(=O)NCCOCCOCCC(=O)N[C@@H](CC(=O)O)C(=O)N[C@@H](Cc2ccc(OS(=O)(=O)O)cc2)C(=O)N[C@@H](CCSC)C(=O)NCC(=O)N[C@@H](Cc2c[nH]c3ccccc23)C(=O)N[C@@H](CCSC)C(=O)N[C@@H](CC(=O)O)C(=O)N[C@@H](Cc2ccccc2)C(N)=O)cs1)C(C)C", "note": "(some centres unmarked) [EC1947]", "values": [
      {"measurement": "weight loss", "setting": "[1]", "result": "do not induce weight loss"},
      {"measurement": "CR's", "setting": "HEK-CCK2R tumor cells; [4]", "result": 20, "unit": "%"},
      {"measurement": "cures", "setting": "HEK-CCK2R tumor cells; [4]", "result": 80, "unit": "%"},
      {"measurement": "pIC50", "setting": "HEK-CCK2R cells [2]", "result": 9.05}
    ]},
    {"smiles": "CCCC(=O)OCN(C(=O)[C@@H](NC(=O)[C@H]1CCCCN1C)C(C)CC)[C@H](C[C@@H](OC(C)=O)c1nc(C(=O)N[C@@H](Cc2ccc(O)cc2)C[C@H](C)C(=O)NNC(=O)OCCSSC[C@H](NC(=O)[C@H](CC(=O)O)NC(=O)[C@@H](N)CNC(C)=O)C(=O)NCCOCCOCCOCCOCCOCCOCCOCCOCCOCCOCCOCCOCCC(=O)N[C@@H](CC(=O)O)C(=O)N[C@@H](Cc2ccc(O)cc2)C(=O)N[C@@H](CCSC)C(=O)NCC(=O)N[C@@H](Cc2c[nH]c3ccccc23)C(=O)N[C@@H](CCSC)C(=O)N[C@@H](CC(=O)O)C(=O)N[C@@H](Cc2ccccc2)C(N)=O)cs1)C(C)C", "note": "(some centres unmarked) [EC1873]", "values": [
      {"measurement": "weight loss", "setting": "[1]", "result": "do not induce weight loss"},
      {"measurement": "CR's", "setting": "HEK-CCK2R tumor cells; [4]", "result": 80, "unit": "%"},
      {"measurement": "PR's", "setting": "HEK-CCK2R tumor cells; [4]", "result": 20, "unit": "%"},
      {"measurement": "pIC50", "setting": "HEK-CCK2R cells [2]", "result": 8.55}
    ]},
    {"smiles": "CCCC(=O)OCN(C(=O)[C@@H](NC(=O)[C@H]1CCCCN1C)C(C)CC)[C@H](C[C@@H](OC(C)=O)c1nc(C(=O)N[C@@H](Cc2ccc(O)cc2)C[C@H](C)C(=O)NNC(=O)OCCSSC[C@H](NC(=O)[C@H](CCC(=O)NC[C@@H](O)[C@H](O)[C@@H](O)[C@@H](O)CO)NC(=O)[C@H](CCC(=O)O)NC(=O)[C@H](CCC(=O)NC[C@@H](O)[C@H](O)[C@@H](O)[C@@H](O)CO)NC(=O)[C@H](CCC(=O)O)NC(=O)CCCCCCCNC(=O)c2cccc(NC(=O)N[C@@H]3CN(C4CCCCC4)c4ccccc4N(CC(=O)C(C)(C)C)C3=O)c2)C(=O)O)cs1)C(C)C", "note": "(some centres unmarked) [EC1812]", "values": [
      {"measurement": "cytotoxic activity on HEK-CCK2R, in words", "setting": "HEK-CCK2R cells [3]", "result": "relatively inactive"},
      {"measurement": "pIC50", "setting": "HEK-CCK2R cells [3]; + 10 μM competitor Re-EC1786, read-out: IC50 in presence of Re-EC1786", "result": 6.58},
      {"measurement": "pIC50", "setting": "HEK-CCK2R cells [3]; conjugate alone, read-out: IC50", "result": 6.65},
      {"measurement": "competition of activity by excess Re-EC1786, in words", "setting": "HEK-CCK2R cells [3]; excess Re-EC1786", "result": "not competeable"}
    ]}
  ]
}
